Test results as given in paper PMC7876048, “Mutant-selective degradation by BRAF-targeting PROTACs” (Nature Communications, 2021).

Experiments:
[1] = test system: H1666 cells (Class 3, BRAF^G466V); assay: Cell proliferation (MTS) assay; type: cell-based; conditions: 5 days
[2] = test system: SK-MEL-246 cells (Class 2, BRAF^G469A); assay: Cell proliferation (MTS) assay; type: cell-based
[3] = test system: SK-MEL-239 C4 cells (BRAF^WT/BRAF-p61^V600E); assay: Cell proliferation (MTS) assay; type: cell-based; conditions: 5 days
[4] = test system: SK-MEL-28 cells (Class 1, BRAF^V600E); assay: Cell proliferation (MTS) assay; type: cell-based; conditions: Homo sapiens, 72 h, 3 days, read-out: EC50, cell growth
[5] = test system: CAL-12-T cells (Class 3, BRAF^G466V); assay: Cell proliferation (MTS) assay; type: cell-based; conditions: 5 days
Procedure: […] 2 mg/ml MTS (Promega Corp., Madison, WI: G5421) and 25 μM phenazine methosulfate (Sigma, St. Louis, MO) were combined 19:1 and then added to cells (1 volume combined reagent: 5 volumes medium) and incubated for 1–3 h. Mitochondrial reduction of MTS to the formazan derivative was monitored by measuring the medium’s absorbance at 480 nm using a Perkin Elmer Envision Plate reader.

[6] = biological target: BRAF V600E (Homo sapiens, UniProt P15056, V600E); assay: Elisa kinase inhibition assay (Carna Biosciences); type: biochemical; design: purchased Carna Biosciences; conditions: Km ATP, duplicate
Chain of BRAF V600E (P15056 whole entry V600E): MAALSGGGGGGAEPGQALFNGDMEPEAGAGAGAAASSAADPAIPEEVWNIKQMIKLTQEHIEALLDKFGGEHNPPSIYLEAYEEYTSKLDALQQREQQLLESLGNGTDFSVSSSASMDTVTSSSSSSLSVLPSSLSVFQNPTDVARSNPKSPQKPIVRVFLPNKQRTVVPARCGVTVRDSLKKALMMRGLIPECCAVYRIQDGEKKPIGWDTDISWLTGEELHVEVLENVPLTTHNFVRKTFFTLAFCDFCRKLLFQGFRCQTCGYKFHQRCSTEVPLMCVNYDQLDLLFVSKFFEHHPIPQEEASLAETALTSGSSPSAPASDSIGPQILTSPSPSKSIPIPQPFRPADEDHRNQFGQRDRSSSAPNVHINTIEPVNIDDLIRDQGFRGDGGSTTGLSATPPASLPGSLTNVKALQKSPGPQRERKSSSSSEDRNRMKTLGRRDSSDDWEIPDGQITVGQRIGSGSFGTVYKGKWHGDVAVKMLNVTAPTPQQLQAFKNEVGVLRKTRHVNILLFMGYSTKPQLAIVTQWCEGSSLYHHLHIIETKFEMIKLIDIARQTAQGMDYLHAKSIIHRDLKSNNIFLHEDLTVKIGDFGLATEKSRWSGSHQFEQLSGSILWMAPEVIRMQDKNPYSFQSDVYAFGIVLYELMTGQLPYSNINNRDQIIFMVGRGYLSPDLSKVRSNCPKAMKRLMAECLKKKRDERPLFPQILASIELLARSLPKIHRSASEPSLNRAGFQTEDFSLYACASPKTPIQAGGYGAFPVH
Procedure: Kinase assays were performed by Carna Biosciences by their protocol in duplicate using Km amounts of ATP calculated for each kinase.

[7] = biological target: T1, BRAF^V600E (SK-MEL-28 cells, homozygous) (Homo sapiens, UniProt P15056, V600E); assay: BRAF degradation by immunoblot in SK-MEL-28 cells; type: cell-based
T1 construct: endogenous in cells; host or cells: SK-MEL-28
T1 sequence (P15056 whole entry V600E): as above
Procedure: (§1) Cells were plated in 6 well dishes (5 × 10^5–8 × 10^5 cells) and allowed to attach overnight. […] The plates were then placed on ice and washed 1x with chilled PBS and lysed in buffer containing 25 mM Tris-HCl [pH 7.4], 0.25% sodium deoxycholate, 150 mM NaCl, 1% Triton X-100, supplemented with protease inhibitors (1x Roche protease inhibitor cocktail) and phosphatase inhibitors (10 mM NaF, 1 mM Na3OV4, and 20 mM β-glycerophosphate). Lysates were then cleared at 21,000 g for 10 min at 4 °C. Protein concentrations of the supernatants were then quantified using a Pierce BCA Protein Assay. 12–40 µg of protein were separated using a gradient (4–20%) Criterion TGX precast gel and transferred unto a nitrocellulose membrane. The membranes were then blocked in 5% non-fat milk in TBST (Tris-buffered Saline with Tween 20) for 1 h before probing with the indicated primary antibody overnight. Membranes were imaged using Bio-Rad Image Lab software using ECL prime detection reagent (GE Healthcare, RPN2232 or ThermoScientific, 34095).
(§2) Western blot data was quantified by using the band feature in Image Lab, and values were averaged and analyzed in GraphPad Prism. DC50 and DMAX values were fitted using a three parameter [inhibitor] versus response and reported directly from the Prism output. Mean ± SD and unpaired t-tests were performed in GraphPad Prism.

[8] = test system: MEK and ERK phosphorylation (SK-MEL-28 cells); assay: MEK and ERK phosphorylation by immunoblot in SK-MEL-28 cells; type: cell-based
Procedure: as §1, §2

EC50 [4] [nM]	IC50 [6] [nM]	EC50 ([2]; 120 h, 5-day treatment, read-out: EC50, cell growth) [nM]	effect on BRAF protein levels [7]	Structure (SMILES)	cell growth inhibition [1]	inhibition of cellular growth ([2]; 5 days, at concentrations above 1 μM, not sustained at 10 μM)	effect on cell growth [3]	inhibition of cell growth / effect on cell viability [5]	concentration giving maximal inhibition of MEK and ERK phosphorylation / maximal suppression of p-ERK [8] [nM]
215 ± 1.09				CCCS(=O)(=O)Nc1ccc(F)c(C(=O)c2c[nH]c3ncc(-c4ccc(Cl)cc4)cc23)c1F [vemurafenib, reference compound]	less than 50%	some inhibition	minimal effect	minimal effect on cell viability	
243 ± 1.09	30	278 ± 1.07	did not decrease BRAF protein levels	CCCS(=O)(=O)Nc1ccc(F)c(C(=O)c2c[nH]c3ncc(-c4ccc(N5CCN(CC(=O)N[C@H](C(=O)N6C[C@@H](O)C[C@H]6C(=O)NCc6ccc(-c7scnc7C)cc6)C(C)(C)C)CC5)cc4)cc23)c1F [SJF-0661]			minimal effect	minimal effect on cell viability	100
